Consider 15 compounds from US20240208992A1, “MACROCYCLES AS CFTR MODULATORS” (Idorsia Pharmaceuticals Ltd, priority 2021, published 2024).

In general, EC50 refers to the concentration that produces a half-maximal response. For orientation: Emax means the maximal effect, on the per cent scale that the assay sets.

The structures appear in SMILES notation.

In this assay the target is human F508del-CFTR (Homo sapiens, UniProt P13569, DEL508-508). Put plainly: F508del-CFTR cell surface expression (corrector activity), DiscoveRx ß-galactosidase complementation chemiluminescence assay in recombinant U2OS cell line.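 On all read-outs here: U2OS cells co-expressing ProLink-tagged F508del-CFTR and a membrane-anchored enzyme acceptor, where more surface CFTR restores β-galactosidase activity measured by chemiluminescence.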 The conditions noted are these: for EC50: EC50, F508del-CFTR cell surface expression, U2OS cells, 16h compound incubation, geomean values; for Emax: U2OS, in relation to Emax of corrector lumacaftor (=100%), arithmetic mean values.
human F508del-CFTR, sequence (P13569 with tags, fused parts or gaps DEL508-508): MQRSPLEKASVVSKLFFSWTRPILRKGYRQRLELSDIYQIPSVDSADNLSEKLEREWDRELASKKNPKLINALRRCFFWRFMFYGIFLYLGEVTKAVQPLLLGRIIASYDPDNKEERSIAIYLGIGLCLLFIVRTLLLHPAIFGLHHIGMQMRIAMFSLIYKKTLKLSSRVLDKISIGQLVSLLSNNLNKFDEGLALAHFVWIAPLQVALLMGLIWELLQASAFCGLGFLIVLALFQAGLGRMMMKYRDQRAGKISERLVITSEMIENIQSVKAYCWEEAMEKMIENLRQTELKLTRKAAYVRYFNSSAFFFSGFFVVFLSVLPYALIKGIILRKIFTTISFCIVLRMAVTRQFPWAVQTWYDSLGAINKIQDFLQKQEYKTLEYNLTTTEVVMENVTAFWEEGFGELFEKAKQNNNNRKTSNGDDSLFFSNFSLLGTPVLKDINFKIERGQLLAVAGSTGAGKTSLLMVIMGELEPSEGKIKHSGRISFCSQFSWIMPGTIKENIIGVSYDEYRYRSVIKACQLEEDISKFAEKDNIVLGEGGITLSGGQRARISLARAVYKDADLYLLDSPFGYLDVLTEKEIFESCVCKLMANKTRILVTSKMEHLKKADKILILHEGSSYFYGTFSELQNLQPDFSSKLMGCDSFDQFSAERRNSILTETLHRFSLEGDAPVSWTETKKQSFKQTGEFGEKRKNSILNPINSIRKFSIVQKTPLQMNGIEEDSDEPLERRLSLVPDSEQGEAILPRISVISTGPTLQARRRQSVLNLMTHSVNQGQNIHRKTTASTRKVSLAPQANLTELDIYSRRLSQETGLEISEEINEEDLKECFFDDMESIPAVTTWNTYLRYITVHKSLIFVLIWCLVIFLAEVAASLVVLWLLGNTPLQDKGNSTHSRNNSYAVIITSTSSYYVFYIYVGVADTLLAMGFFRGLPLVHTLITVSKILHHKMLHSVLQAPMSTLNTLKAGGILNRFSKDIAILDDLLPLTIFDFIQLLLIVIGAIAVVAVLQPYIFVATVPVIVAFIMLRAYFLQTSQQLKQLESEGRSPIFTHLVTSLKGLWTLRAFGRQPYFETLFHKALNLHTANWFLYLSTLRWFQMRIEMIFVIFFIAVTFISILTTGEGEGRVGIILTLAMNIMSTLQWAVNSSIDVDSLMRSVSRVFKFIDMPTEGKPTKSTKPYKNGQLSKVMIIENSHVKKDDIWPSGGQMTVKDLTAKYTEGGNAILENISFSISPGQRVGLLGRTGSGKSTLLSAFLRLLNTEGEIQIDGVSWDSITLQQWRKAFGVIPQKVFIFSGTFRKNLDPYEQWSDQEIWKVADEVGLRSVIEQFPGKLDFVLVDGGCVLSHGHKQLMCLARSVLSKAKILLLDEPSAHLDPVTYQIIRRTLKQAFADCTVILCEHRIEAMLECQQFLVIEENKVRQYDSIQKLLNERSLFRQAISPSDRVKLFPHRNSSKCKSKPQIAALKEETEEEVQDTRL

With `COc1cccc(CCNC(=O)[C@@H]2CC(=O)N(C)[C@@H](CC(C)C)C(=O)N(C)[C@H](C)C(=O)N[C@H](Cc3ccccc3)COc3cnc4ccccc4c3C(=O)N2)c1` [Example 680, (3S,7S,10R,13R)-13-benzyl-7-isobutyl-N-(3-methoxyphenethyl)-6,9,10-trimethyl-1,5,8,11-tetraoxo-1,2,3,4,5,6,7,8,9,10,11,12,13,14-tetradecahydro-[1]oxa[4,7,10,14]tetraazacycloheptadecino[17,16-c]quinoline-3-carboxamide], the EC50 worked out at 0.448 µM and the maximum response (Emax) came out at 340%.

For the compound `COc1nccc2c1C(=O)N[C@H](C(=O)NCCc1noc(C3CC3)n1)CC(=O)N(C)[C@@H](CC(C)C)C(=O)N(C)[C@H](c1ccccc1)C(=O)N[C@H](Cc1ccccc1)CO2` [Example 681, (3R,6R,9S,13S)-3-benzyl-N-(2-(5-cyclopropyl-1,2,4-oxadiazol-3-yl)ethyl)-9-isobutyl-16-methoxy-7,10-dimethyl-5,8,11,15-tetraoxo-6-phenyl-2,3,4,5,6,7,8,9,10,11,12,13,14,15-tetradecahydropyrido[3,4-p][1]oxa[4,7,10,14]tetraazacycloheptadecine-13-carboxamide], the 50% effective concentration (EC50) is 0.447 µM and the Emax amounted to 313%.

As to `COc1nccc2c1C(=O)N[C@H](C(=O)NCCc1cc(C3CC3)on1)CC(=O)N(C)[C@@H](CC(C)C)C(=O)N(C)[C@H](CC1CCC(F)(F)CC1)C(=O)N[C@H](Cc1ccccc1)CO2` [Example 682, (3R,6R,9S,13S)-3-benzyl-N-(2-(5-cyclopropylisoxazol-3-yl)ethyl)-6-((4,4-difluorocyclohexyl)methyl)-9-isobutyl-16-methoxy-7,10-dimethyl-5,8,11,15-tetraoxo-2,3,4,5,6,7,8,9,10,11,12,13,14,15-tetradecahydropyrido[3,4-p][1]oxa[4,7,10,14]tetraazacycloheptadecine-13-carboxamide], the EC50 was 0.11 µM and the maximal response (Emax) amounted to 351%.

As to `COc1nc(C)cc2c1C(=O)N[C@H](C(=O)NCCc1cc(C)no1)CC(=O)N(C)[C@@H](CC(C)C)C(=O)N1CCC3(CC3)C[C@@H]1C(=O)N[C@H](Cc1ccccc1)CO2` [Example 683, (7′S,11′S,17a′R,20′R)-20′-benzyl-11′-isobutyl-4′-methoxy-2′,10′-dimethyl-N-(2-(3-methylisoxazol-5-yl)ethyl)-5′,9′,12′,18′-tetraoxo-5′,6′,7′,8′,9′,10′,11′,12′,14′,15′,17′,17a′,18′,19′,20′,21′-hexadecahydrospiro[cyclopropane-1,16′-dipyrido[2,1-f:3′,4′-p][1]oxa[4,7,10,14]tetraazacycloheptadecine]-7′-carboxamide], the EC50 is 0.362 µM and the Emax amounted to 262%.

Turning to `COc1cc(CCNC(=O)[C@@H]2CC(=O)N(C)[C@@H](CC(C)C)C(=O)N3CCC4(CC4)C[C@H]3C(=O)N[C@H](Cc3ccccc3)COc3cc(C)nc(OC)c3C(=O)N2)on1` [Example 684, (7′S,11′S,17a′S,20′R)-20′-benzyl-11′-isobutyl-4′-methoxy-N-(2-(3-methoxyisoxazol-5-yl)ethyl)-2′,10′-dimethyl-5′,9′,12′,18′-tetraoxo-5′,6′,7′,8′,9′,10′,11′,12′,14′,15′,17′,17a′,18′,19′,20′,21′-hexadecahydrospiro[cyclopropane-1,16′-dipyrido[2,1-f:3′,4′-p][1]oxa[4,7,10,14]tetraazacycloheptadecine]-7′-carboxamide], the EC50 is 0.986 µM and the Emax is 235%.

Take `[2H]C([2H])([2H])Oc1nc(C)cc2c1C(=O)N[C@H](C(=O)NCCc1cnn(C3CC3)n1)CC(=O)N(C)[C@@H](CC(C)C)C(=O)N1CCCC[C@@H]1C(=O)N[C@H](Cc1ccccc1)CO2` [Example 685, (7S,11S,17aR,20R)-20-benzyl-N-(2-(2-cyclopropyl-2H-1,2,3-triazol-4-yl)ethyl)-11-isobutyl-4-(methoxy-d3)-]: the EC50 is 0.5 µM and the maximum response (Emax) stood at 234%.

`COc1cc(CCNC(=O)[C@@H]2CC(=O)N(C)[C@@H](CC(C)C)C(=O)N(C)C3(CC3)C(=O)N[C@H](Cc3ccccc3)COc3cnc4ccccc4c3C(=O)N2)on1` [Example 686, (3′S,7′S,13′R)-13′-benzyl-7′-isobutyl-N-(2-(3-methoxyisoxazol-5-yl)ethyl)-6′,9′-dimethyl-1′,5′,8′,11′-tetraoxo-2′,3′,4′,5′,6′,7′,8′,9′,11′,12′,13′,14′-dodecahydro-1′H-spiro[cyclopropane-1,10′-[1]oxa[4,7,10,14]tetraazacycloheptadecino[17,16-c]quinoline]-3′-carboxamide]: the EC50 came out at 0.436 µM and the Emax was 332%.

For `CC(C)C[C@H]1C(=O)N(C)CC(=O)N[C@H](Cc2ccccc2)COc2ccccc2C(=O)N[C@H](C(=O)NCCc2ccc3c(c2)OCO3)CC(=O)N1C` [Example 687, (3R,9S,13S)-N-(2-(benzo[d][1,3]dioxol-5-yl)ethyl)-3-benzyl-9-isobutyl-7,10-dimethyl-5,8,11,15-tetraoxo-2,3,4,5,6,7,8,9,10,11,12,13,14,15-tetradecahydrobenzo[p][1]oxa[4,7,10,14]tetraazacycloheptadecine-13-carboxamide], the 50% effective concentration (EC50) worked out at 0.794 µM and the maximal effect (Emax) came to 107%.

In the case of `CC(C)C[C@H]1C(=O)N(C)CC(=O)N[C@H](Cc2ccccc2)COc2ccccc2C(=O)N[C@H](C(=O)NCCc2ccc3c(c2)OCCO3)CC(=O)N1C` [Example 688, (3R,9S,13S)-3-benzyl-N-(2-(2,3-dihydrobenzo[b][1,4]dioxin-6-yl)ethyl)-9-isobutyl-7,10-dimethyl-5,8,11,15-tetraoxo-2,3,4,5,6,7,8,9,10,11,12,13,14,15-tetradecahydrobenzo[p][1]oxa[4,7,10,14]tetraazacycloheptadecine-13-carboxamide], the EC50 was determined as 0.458 µM and the maximal response (Emax) was determined as 104%.

Take `CC(C)C[C@H]1C(=O)N(C)C2(CCC2)C(=O)N[C@H](Cc2ccccc2)COc2cnc3ccc(F)cc3c2C(=O)N[C@H](C(=O)NCCc2cc(C3CC3)no2)CC(=O)N1C` [Example 689, (3'S,7'S,13′R)-13′-Benzyl-N-(2-(3-cyclopropylisoxazol-5-yl)ethyl)-20′-fluoro-7′-isobutyl-6′,9′-dimethyl-1′,5′,8′,11′-tetraoxo-2′,3′,4′,5′,6′,7′,8′,9′,11′,12′,13′,14′-dodecahydro-1′H-spiro[cyclobutane-1,10′-[1]oxa[4,7,10,14]tetraazacycloheptadecino[17,16-c]quinoline]-3′-carboxamide]: the EC50 is 0.245 µM and the maximum response (Emax) amounted to 390%.

Turning to `Cc1cc(CCNC(=O)[C@@H]2CC(=O)N(C)[C@@H](CC(C)C)C(=O)N(C)C3(CCC3)C(=O)N[C@H](Cc3ccccc3)COc3cnc4ccc(F)cc4c3C(=O)N2)on1` [Example 690, (3′S,7′S,13′R)-13′-benzyl-20′-fluoro-7′-isobutyl-6′,9′-dimethyl-N-(2-(3-methylisoxazol-5-yl)ethyl)-1′,5′,8′,11′-tetraoxo-2′,3′,4′,5′,6′,7′,8′,9′,11′,12′,13′,14′-dodecahydro-1′H-spiro[cyclobutane-1,10′-[1]oxa[4,7,10,14]tetraazacycloheptadecino[17,16-c]quinoline]-3′-carboxamide], the half-maximal effective concentration (EC50) was determined as 0.478 µM and the maximum response (Emax) is 401%.

Turning to `CC(C)C[C@H]1C(=O)N(C)C2(CCC2)C(=O)N[C@H](Cc2ccccc2)COc2cnc3ccc(F)cc3c2C(=O)N[C@H](C(=O)NCCc2noc(C3CC3)n2)CC(=O)N1C` [Example 691, (3′S,7′S,13′R)-13′-benzyl-N-(2-(5-cyclopropyl-1,2,4-oxadiazol-3-yl)ethyl)-20′-fluoro-7′-isobutyl-6′,9′-dimethyl-1′,5′,8′,11′-tetraoxo-2′,3′,4′,5′,6′,7′,8′,9′,11′,12′,13′,14′-dodecahydro-1′H-spiro[cyclobutane-1,10′-[1]oxa[4,7,10,14]tetraazacycloheptadecino[17,16-c]quinoline]-3′-carboxamide], the half-maximal effective concentration (EC50) came to 0.201 µM and the Emax stood at 364%.

In the case of `CC(C)C[C@H]1C(=O)N(C)C2(CCC2)C(=O)N[C@H](Cc2ccccc2)COc2cnc3ccc(F)cc3c2C(=O)N[C@H](C(=O)NCCc2nc(C3CC3)no2)CC(=O)N1C` [Example 692, (3′S,7′S,13′R)-13′-benzyl-N-(2-(3-cyclopropyl-1,2,4-oxadiazol-5-yl)ethyl)-20′-fluoro-7′-isobutyl-6′,9′-dimethyl-1′,5′,8′,11′-tetraoxo-2′,3′,4′,5′,6′,7′,8′,9′,11′,12′,13′,14′-dodecahydro-1′H-spiro[cyclobutane-1,10′-[1]oxa[4,7,10,14]tetraazacycloheptadecino[17,16-c]quinoline]-3′-carboxamide], the 50% effective concentration (EC50) is 0.104 µM and the maximal effect (Emax) came to 301%.

Regarding `CC(C)C[C@H]1C(=O)N(C)[C@H](CC2CCCC2)C(=O)N[C@H](Cc2ccccc2)COc2cnc3ccc(F)cc3c2C(=O)N[C@H](C(=O)NCCc2noc(C3CC3)n2)CC(=O)N1C` [Example 693, (3S,7S,10R,13R)-13-benzyl-10-(cyclopentylmethyl)-N-(2-(5-cyclopropyl-1,2,4-oxadiazol-3-yl)ethyl)-20-fluoro-7-isobutyl-6,9-dimethyl-1,5,8,11-tetraoxo-1,2,3,4,5,6,7,8,9,10,11,12,13,14-tetradecahydro-[1]oxa[4,7,10,14]tetraazacycloheptadecino[17,16-c]quinoline-3-carboxamide], the 50% effective concentration (EC50) amounted to 0.04 µM and the maximal response (Emax) came to 401%.

As for `CC(C)C[C@H]1C(=O)N(C)[C@@H](CC2CCCC2)C(=O)N[C@H](Cc2ccccc2)COc2cnc3ccc(F)cc3c2C(=O)N[C@H](C(=O)NCCc2noc(C3CC3)n2)CC(=O)N1C` [Example 694, (3S,7S,10S,13R)-13-benzyl-10-(cyclopentylmethyl)-N-(2-(5-cyclopropyl-1,2,4-oxadiazol-3-yl)ethyl)-20-fluoro-7-isobutyl-6,9-dimethyl-1,5,8,11-tetraoxo-1,2,3,4,5,6,7,8,9,10,11,12,13,14-tetradecahydro-[1]oxa[4,7,10,14]tetraazacycloheptadecino[17,16-c]quinoline-3-carboxamide], the EC50 came to 0.241 µM and the Emax came to 213%.
